Measured values: patent publication US10034836B2, “Formulations of guanylate cyclase C agonists and methods of use” (SYNERGY PHARMACEUTICALS, INC., priority 2008, dated 2018)
Where a SMILES comes first, the peptide text is derived from it. Bridges are numbered along the chain shown (N, C = ends).

What was measured:
[1] = type: in vitro ADME; details: pH 2
Description: FIG. 1A: Biological activity of SP-304 incubated for varying lengths of time in simulated gastric fluid (SGF). The biological activity of SP-304 was determined by measuring its ability to stimulate cGMP synthesis in T84 cells. Samples incubated for 0, 15, 30, 60, 90 and 120 minutes, respectively, were collected and analyzed for biological activity—with activity of the 0 min sample defined as 100% biological activity. The activities of the other samples are shown as percentage activity relative to the 0 min activity sample. Data points shown are the average of triplicate measurements±SD.
The stability of SP-304 in the presence of simulated gastric fluid (SGF) was determined by biological activity measurements and HPLC analyses (FIGS. 1A & 1B). SP-304 (final concentration of 8.5 mg/ml) was incubated in SGF (Proteose peptone (8.3 g/liter; Difco), D-Glucose (3.5 g/liter; Sigma), NaCl (2.05 g/liter; Sigma), KH2PO4 (0.6 g/liter; Sigma), CaCl2 (0.11 g/liter), KCl (0.37 g/liter; Sigma), Porcine bile (final 1× concentration 0.05 g/liter; Sigma) in PBS, Lysozyme (final 1× concentration 0.10 g/liter; Sigma) in PBS, Pepsin (final 1× concentration 0.0133 g/liter; Sigma) in PBS). SGF was made on the day of the experiment and the pH was adjusted to 2.0±0.1 using HCl or NaOH as necessary. After the pH adjustment, SGF is filter sterilized with 0.22 μm membrane filters. […]

[2] = Stability in simulated intestinal fluid (SIF), biological activity by cGMP synthesis in T84 cells; type: in vitro ADME
Description: FIG. 2A: Biological activity of SP-304 incubated for varying lengths of time in simulated intestinal fluid (SIF). SP-304 samples were incubated for 0, 30, 60, 90, 150, and 300 min, respectively, and then tested for their ability to stimulate cGMP synthesis in T84 cells. The cGMP stimulation activity in the sample at 0 min of incubation time in SIF was taken as 100% biological activity. The activities of the other SP-304 incubation samples were calculated as the percentage of activity relative to that of the 0 min sample. Data points shown are the average of triplicate measurements±SD.
(§1) FIG. 7A: Biological activity of SP-333 incubated for varying lengths of time in simulated intestinal fluid (SIF). SP-333 samples incubated for 0, 5, 10, 30, 60, and 120 min, respectively, were tested for their ability to stimulate cGMP synthesis in T84 cells. The control sample marked as C120 was produced by incubating SP-333 with heat inactivated SIF for 120 min. Samples from the incubations were removed and heated at 95° C. for 5 min to inactivate digestive enzymes and then used to stimulate cyclic GMP synthesis in T84 cells. The cGMP stimulation activity in the sample at 0 min of incubation time in SIF was taken as 100% biological activity. The activities of the other SP-304 incubation samples were calculated as the percentage of activity relative to that of the 0 min sample. Data points shown are the average of triplicate measurements±SD.
as §1, with “FIG. 7B:” for “FIG. 7A:”, “of SP-332” for “of SP-333”, “incubating SP-332” for “incubating SP-333”
FIG. 7C: Biological activity of SP-304 incubated for varying lengths of time in simulated intestinal fluid (SIF). SP-304 samples incubated for 0, 10, and 60 min, respectively, were tested for their ability to stimulate cGMP synthesis in T84 cells. The control samples marked as C0 and C60 were produced by incubating SP-304 with heat inactivated SIF for 0 and 60 min, respectively. Samples from the incubations were removed and heated at 95° C. for 5 min to inactivate digestive enzymes and then used to stimulate cyclic GMP synthesis in T84 cells. The cGMP stimulation activity in the sample at 0 min of incubation time in SIF was taken as 100% biological activity. The activities of the other SP-304 incubation samples were calculated as the percentage of activity relative to that of the 0 min sample. […]
FIGS. 7G-1-7G-5: Incubation of SP-333 with SIF for 2, 6, 12 and 24 hrs. Effect of SIF digestion on the activity of SP-333 in T84 stimulation assay was determined (FIG. 7G-1) and samples were also analyzed by HPLC (FIGS. 7G2-5). […]
The stability of SP-304 was also evaluated after incubation with simulated intestinal fluid (SIF) by measuring its biological activity and by HPLC analyses (FIGS. 2A & 2B). […]

For `CC(C)C[C@H](NC(=O)[C@@H]1CSSC[C@@H]2NC(=O)[C@H](CC(C)C)NC(=O)[C@H](CCC(=O)O)NC(=O)[C@@H](NC(=O)[C@H](CCC(=O)O)NC(=O)[C@H](CC(=O)O)NC(=O)[C@@H](N)CC(N)=O)CSSC[C@H](NC(=O)[C@H](C)NC(=O)[C@H](C(C)C)NC(=O)[C@H](CC(N)=O)NC(=O)[C@H](C(C)C)NC2=O)C(=O)N[C@@H]([C@@H](C)O)C(=O)NCC(=O)N1)C(=O)O` [SP-304, Asn^1-Asp^2-Glu^3-Cys^4-Glu^5-Leu^6-Cys^7-Val^8-Asn^9-Val^10-Ala^11-Cys^12-Thr^13-Gly^14-Cys^15-Leu^16] (H-NDECELCVNVACTGCL-OH; disulfide 4-12, 7-15), the “activity after exposure to the acidic pH of the SGF” value [1] was “unaltered”, the “biological activity after incubation with SGF (breakdown in SGF)” value [1] was “resistant to breakdown in SGF” and the “loss of potency following digestion with SIF” value [2] was “about 30%”. The “reduction in biological activity after incubation in SIF” value [2] was 30% and the “reduction of biological activity following incubation in SIF” value ([2]; pH 6) was “about 30%”.
